Values joined by “and” are separate entries in the source; they are usually repeats but may differ in a detail not shown here. Equal entries are not always repeated.

The viability, T/C is the result in the treated group divided by that in the control group, in per cent. What is called IC50 is the concentration needed to halve the response being measured.

This test relates to 349418-098-R-PDC complex spheroid viability. Description: Anticancer human tumor 349418-098-R-PDC patient-derived lung adenocarcinoma cell line growth inhibition. The conditions noted are these: for viability, T/C: stronger effect = lower value. From the text:
Multicellular complex tumor spheroid response to LSD1 Inhibitor Iadademstat in combination with a variety of drugs and investigational agents in selected tumor cell lines
The current study was undertaken to assess response to LSD1 inhibitors in combination with standard-of-care drugs and investigational agents in solid tumor complex spheroid models as well as in the K-562 leukemia. Complex spheroids include a stromal component modeled by human endothelial cells (HUVEC) and fibroblasts modeled by human mesenchymal stem cells (MSCs). The concentration ranges selected for each drug and investigational agent were based upon clinically achievable concentrations if the clinical Cmax of the agent was known.
Compounds. The drugs and investigational agents used in this study are listed on Table 1. All of the agents used, including staurosporine (NSC755774) and gemcitabine (NSC613327), were obtained from the Developmental Therapeutics Program, NCI. FDA-approved anticancer drugs are available from the NCI at http://dtp.nci.nih.gov/branches/dscb/oncology_drugset_explanation.html. Drugs and investigational agents were >95% pure by proton nuclear magnetic resonance (NMR) and liquid chromatography/mass spectrometry (LC/MS). Stock solutions were prepared at 400x in DMSO, stored at -70 degrees C, and diluted in fresh medium prior to their use. The final concentration of DMSO in cell culture wells never exceeded 0.25% (v/v). The FDA-approved anticancer drug set is available from the Developmental Therapeutics Program at https://dtp.cancer.gov/organization/dscb/obtaining/available_plates.htm. All drugs and investigational agents were tested over a range starting from a high concentration at or near the clinical Cmax and decreasing in half-log increments. If the clinical Cmax for an agent had not been determined, the highest concentration tested was 10 microM.
Cell Lines. The patient-derived cancer cell (PDC) lines: 292921-168-R-J2-PDC, K24384-001-R-PDC, and 521955-158-R2-J5-PDC pancreatic carcinomas, 556581-035-R-J1 ovarian carcinoma, 324938-238-R-J1-PDC, 855422-203-R-J1-PDC and 883617-216-R-J1-PDC urothelial bladder carcinomas, 743489-274-T-PDC renal cell carcinoma, 138582-R-J1 Merkel cell tumor, K60290-347-R-J1 and K57222-313-R-J1-PDC glioblastomas, 653999-131-R-J2-PDC, LG0703-F948-PDC, and 349418-098-R-PDC non-small cell lung carcinomas, 885512-296-R-J2-PDC, 171881-019-R-J1-PDC breast carcinomas and 186277-243-T-J2-PDC and 233499-124-R-J2-PDC colon carcinomas were obtained from the NCI Patient-Derived Models Repository (PDMR, https://pdmr.cancer.gov). The established cell lines NCI/ADR-RES (RRID:CVCL_14520 and OVCAR-5 (RRID:CVCL_1628) ovarian carcinomas, 786-O (RRID:CVCL_1051) and A498 (RRID:CVCL_A498) renal cell carcinoma, NCI-H211 (ATCC, cat. CRL-5824; RRID:CVCL_1529), NCI-H196 (ATCC, cat. CRL-5823, RRID:CVCL_1509), SW 1271 (ATCC, cat. CRL-2177, RRID:CVCL_1716) and NCI-H1876 (ATCC, cat. CRL-5902, RRID:CVCL_1503) small cell lung carcinomas, MDA-MB-231 (RRID:CVCL_0062) and MDA-MB-468 (RRID:CVCL_0419)breast carcinomas (10-12). Pooled donor human umbilical vein endothelial cells (HUVEC, Lonza, cat. CC-2519) and human mesenchymal stem cells (hMSC, Lonza, cat. PT-2501) were purchased from Lonza (Walkersville, MD).
Cell Culture. All cells were maintained in an incubator at 37 degrees C and 5% CO2 with 95% humidity. The PDC lines were cultured according to standard operating procedures established by the NCI PDMR (https://pdmr.cancer.gov). Briefly all PDCs were thawed and cultured in Matrigel-coated flasks prepared with a working solution of 1X Ham's F-12 nutrient mix, without supplementation (Invitrogen, Waltham, MA, cat. 11765054), 100 U/mL penicillin-streptomycin (Invitrogen, cat. 15140122), and 2.5% Matrigel (Corning Inc., Corning, NY, cat. 354248) for the first three passages. […]
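Also: spheroids exposed to agents for seven days before readout.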

Consider `CC(C)c1c(-c2ccccc2)nc2c(C#N)c[nH]n2c1=O`, for which the viability, T/C was 97% and 109% (compound 0.0316 µM); 105% and 109% (compound 0.1 µM); 101% and 104% (compound 0.316 µM); 95.7% and 105% (compound 1 µM); 97.2% and 95.9% (compound 3.16 µM); 85.2% and 82.5% (compound 10 µM). In addition, the IC50 (curve of compound) is over 10 µM.
As to `CC1(C)CCC(CN2CCN(c3ccc(C(=O)NS(=O)(=O)c4ccc(NCC5CCOCC5)c([N+](=O)[O-])c4)c(Oc4cnc5[nH]ccc5c4)c3)CC2)=C(c2ccc(Cl)cc2)C1`, the viability, T/C is, setting by setting: (compound 0.0316 µM) 98.4% and 106%; (compound 0.1 µM) 88.2% and 103%; (compound 0.316 µM) 95.9% and 91.1%; (compound 1 µM) 84.3% and 68.4%; (compound 3.16 µM) 67.7% and 24.9%; (compound 10 µM) 13.5% and 0.24%. Under “curve of compound”, the IC50 was 4.56 µM and 1.6 µM.
For the molecule `CC1COCCN1c1cc(C2(S(C)(=N)=O)CC2)nc(-c2ccnc3[nH]ccc23)n1` (centres undefined), the viability, T/C was 106% and 107% (compound 0.0316 µM); 91.2% and 108% (compound 0.1 µM); 57% and 96.7% (compound 0.316 µM); 14.8% and 49.8% (compound 1 µM); 10.1% and 11.9% (compound 3.16 µM); 10.6% and 11.5% (compound 10 µM). Besides, the 50% inhibitory concentration (IC50) (curve of compound) is 0.368 µM and 0.977 µM.
In the case of `CCN(c1cc(-c2ccc(CN3CCOCC3)cc2)cc(C(=O)NCc2c(C)cc(C)[nH]c2=O)c1C)C1CCOCC1`, the viability, T/C reads like this: (compound 0.00949 µM) 91.2% and 96.2%; (compound 0.03 µM) 100% and 97.8%; (compound 0.0949 µM) 93.4% and 87.5%; (compound 0.3 µM) 91.6% and 50.8%; (compound 0.949 µM) 76.7% and 26.2%; (compound 3 µM) 68.7% and 10%. For the setting “curve of compound”, the 50% inhibitory concentration (IC50) was > 3 µM and 0.343 µM.
For the molecule `COc1cc(C2c3cc4c(cc3C(OC3OC5COC(C)OC5C(O)C3O)C3COC(=O)C23)OCO4)cc(OC)c1O` (centres undefined), the viability, T/C is, setting by setting: (compound 0.00949 µM) 93.8% and 95.9%; (compound 0.03 µM) 85.4% and 73.6%; (compound 0.0949 µM) 48.8% and 24.1%; (compound 0.3 µM) 13.5% and 6.74%; (compound 0.949 µM) 7.1% and 4.19%; (compound 3 µM) 4.85% and 3.34%. Besides, the IC50 (curve of compound) was 0.091 µM and 0.052 µM.
Take `COc1ccc([C@@H](O)c2cc(-c3ncnc4cc(N5CCOCC5)ccc34)c(F)cc2Cl)nn1`: the viability, T/C was 91.6% and 95.8% (compound 0.0316 µM); 79.4% and 83.2% (compound 0.1 µM); 53.7% and 74.8% (compound 0.316 µM); 29.1% and 41.5% (compound 1 µM); 9.45% and 15% (compound 3.16 µM); 6.34% and 4.43% (compound 10 µM). Also, the IC50 (curve of compound) was 0.384 µM and 0.74 µM.
Take `NC1CC1c1ccc(-c2cccc(O)c2)cc1` (centres undefined): the viability, T/C (compound 1 µM) is 113% [middle of 25 runs]. For the setting “compound alone, run of 02/01/2022”, the half-maximal inhibitory concentration (IC50) was over 10 µM.
For the molecule `NC1CCC(NC2CC2c2ccccc2)CC1` (centres undefined), the viability, T/C is 106% (2×) and 102% (compound 0.316 µM); 103% [middle of 25 runs] (compound 3.16 µM). For the same molecule, for the setting “compound alone, run of 01/18/2022”, the IC50 is over 10 µM.
`NS(=O)(=O)OCC1CC(n2ccc3c(NC4CCc5ccccc54)ncnc32)CC1O` (centres undefined): the viability, T/C was 97.7% and 104% (compound 0.00949 µM); 98% and 68.5% (compound 0.03 µM); 33.6% and 29.1% (compound 0.0949 µM); 18.3% and 11% (compound 0.3 µM); 7.34% and 5.1% (compound 0.949 µM); 4.71% and 4.35% (compound 3 µM). Besides, the IC50 (curve of compound) is 0.0706 µM and 0.0516 µM.
On to `Nc1ccccc1NC(=O)c1ccc(CNC(=O)OCc2cccnc2)cc1`, for which the viability, T/C reads like this: (compound 0.00949 µM) 92.5% and 80.8%; (compound 0.03 µM) 83% and 67.2%; (compound 0.0949 µM) 63.3% and 46.6%; (compound 0.3 µM) 44.4% and 22.8%; (compound 0.949 µM) 17.9% and 5.31%; (compound 3 µM) 5.6% and 3.19%. Besides, under “curve of compound”, the concentration for half-maximal inhibition (IC50) is 0.2 µM and 0.0773 µM.
In the case of `O=C(C=Cc1cccc(S(=O)(=O)Nc2ccccc2)c1)NO`, the viability, T/C runs as follows: (compound 0.00949 µM) 81.2% and 75%; (compound 0.03 µM) 71.6% and 70.5%; (compound 0.0949 µM) 58.6% and 19.1%; (compound 0.3 µM) 17.8% and 2.96%; (compound 0.949 µM) 3.74% and 0.75%. Also, the IC50 (curve of compound) is 0.118 µM and 0.0527 µM.
As for `O=C(c1cc(Cc2n[nH]c(=O)c3ccccc23)ccc1F)N1CCN(C(=O)C2CC2)CC1`, the viability, T/C is 94.6% and 101% (compound 0.0316 µM); 97.8% and 94.5% (compound 0.1 µM); 78.8% and 90.7% (compound 0.316 µM); 65.8% and 85.2% (compound 1 µM); 53.2% and 64% (compound 3.16 µM); 38.9% and 42.3% (compound 10 µM). The half-inhibitory concentration (IC50) (curve of compound) is 3.51 µM and 6.75 µM.

Source of the values: PubChem BioAssay AID1918936 (Molecular Pharmacology Branch, DTP, NCI, 2023).
